# Measured values from patent US10358436B2, “Kinase inhibitors and method of treating cancer” (University Health Network, priority 2010, dated 2019).
# Where a name gives a salt, the structure may show the parent alone.
# Target: Aurora A (Homo sapiens (Human), UniProt O14965)
# Assay: Aurora A inhibition assay (Z-Lyte)
# Assay type: biochemical
# Chain of Aurora A (O14965 whole entry): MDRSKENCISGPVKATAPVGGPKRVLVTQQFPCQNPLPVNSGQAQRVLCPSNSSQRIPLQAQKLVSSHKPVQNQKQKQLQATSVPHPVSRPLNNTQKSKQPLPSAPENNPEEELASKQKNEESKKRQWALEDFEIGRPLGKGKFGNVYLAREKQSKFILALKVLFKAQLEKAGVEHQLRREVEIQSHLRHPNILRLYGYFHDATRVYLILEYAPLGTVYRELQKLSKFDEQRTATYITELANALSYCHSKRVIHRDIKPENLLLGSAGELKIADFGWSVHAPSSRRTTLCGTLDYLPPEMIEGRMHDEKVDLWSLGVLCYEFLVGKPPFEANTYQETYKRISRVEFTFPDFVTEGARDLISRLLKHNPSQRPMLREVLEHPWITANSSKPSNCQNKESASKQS
row,SMILES,inhibition at 1 µM [%]
1,"COc1ccc2c(c1)[C@]1(C[C@H]1c1ccc3c(/C=C/c4ccc5c(c4)CCN(C)C5)n[nH]c3c1)C(=O)N2 [Example A75, (1R,2S)-5′-methoxy-2-(3-((E)-2-(2-methyl-1,2,3,4-tetrahydroisoquinolin-6-yl)vinyl)-1H-indazol-6-yl)spiro[cyclopropane-1,3′-indolin]-2′-one 2,2,2-trifluoroacetate salt]",> 50
2,"CN1CCc2cc(-c3n[nH]c4cc([C@@H]5C[C@@]56C(=O)Nc5ccccc56)ccc34)ccc2C1 [Example A76, (1R,2S)-2-(3-(2-methyl-1,2,3,4-tetrahydroisoquinolin-6-yl)-1H-indazol-6-yl)spiro[cyclopropane-1,3′-indolin]-2′-one 2,2,2-trifluoroacetate salt]",< 50
3,"CN1CCC(Oc2ccc(/C=C/c3n[nH]c4cc([C@@H]5C[C@@]56C(=O)Nc5ccccc56)ccc34)cc2)CC1 [Example A78, (1R,2S)-(E)-2-(3-(4-(1-methylpiperidin-4-yloxy)styryl)-1H-indazol-6-yl)spiro[cyclopropane-1,3′-indolin]-2′-one 2,2,2-trifluoroacetate salt]",> 50
4,"COc1ccc2c(c1)[C@]1(C[C@H]1c1ccc3c(/C=C/c4ccc(OC5CCN(C)CC5)cc4)n[nH]c3c1)C(=O)N2 [Example A79, (1R,2S)-(E)-5′-methoxy-2-(3-(4-(1-methylpiperidin-4-yloxy)styryl)-1H-indazol-6-yl)spiro[cyclopropane-1,3′-indolin]-2′-one 2,2,2-trifluoroacetate salt]",> 50
5,"CC(C)(c1ccc(/C=C/c2n[nH]c3cc([C@@H]4C[C@@]45C(=O)Nc4ccccc45)ccc23)cc1)N1CCOCC1 [Example A80, (1R,2S)-(E)-2-(3-(4-(2-morpholinopropan-2-yl)styryl)-1H-indazol-6-yl)spiro[cyclopropane-1,3′-indolin]-2′-one 2,2,2-trifluoroacetate salt]",> 50
6,"CN1CCC(Cc2ccc(/C=C/c3n[nH]c4cc([C@@H]5C[C@@]56C(=O)Nc5ccccc56)ccc34)cc2)CC1 [Example A81, (1R,2S)-(E)-2-(3-(4-((l-methylpiperidin-4-yl)methyl)styryl)-1H-indazol-6-yl)spiro[cyclopropane-1,3′-indolin]-2′-one 2,2,2-trifluoroacetate salt]",> 50
7,"COc1ccc2c(c1)[C@]1(C[C@H]1c1ccc3c(/C=C/c4ccc(CC5CCN(C)CC5)cc4)n[nH]c3c1)C(=O)N2 [Example A82, (1R,2S)-(E)-5′-methoxy-2-(3-(4-((l-methylpiperidin-4-yl)methyl)styryl)-1H-indazol-6-yl)spiro[cyclopropane-1,3′-indolin]-2′-one 2,2,2-trifluoroacetate salt]",> 50
8,"COc1ccc2c(c1)[C@]1(C[C@H]1c1ccc3c(/C=C/c4ccc(CN5CCCC5)cc4)n[nH]c3c1)C(=O)N2 [Example A83, (1R,2S)-(E)-5′-methoxy-2-(3-(4-(pyrrolidin-1-ylmethyl)styryl)-1H-indazol-6-yl)spiro[cyclopropane-1,3′-indolin]-2′-one 2,2,2-trifluoroacetate]",> 50
9,"CN1C(=O)[C@@]2(C[C@H]2c2ccc3c(/C=C/c4ccc(N5CCNCC5)cc4)n[nH]c3c2)c2ccccc21 [Example A90, (1R,2S)-(E)-1′-methyl-2-(3-(4-(piperazin-1-yl)styryl)-1H-indazol-6-yl)spiro[cyclopropane-1,3′-indolin]-2′-one hydrochloride]",> 50
10,"O=C1Nc2ccccc2[C@]12C[C@H]2c1ccc2c(/C=C/c3ccc(N4CCNCC4)cc3)n[nH]c2c1 [Example A92, (1R,2S)-(E)-2-(3-(4-(piperazin-1-yl)styryl)-1H-indazol-6-yl)spiro[cyclopropane-1,3′-indolin]-2′-one bis(2,2,2-trifluoroacetate)]",> 50
11,"CN1C(=O)[C@@]2(C[C@H]2c2ccc3c(/C=C/c4ccc(CN5CCCCC5)cc4)n[nH]c3c2)c2ccccc21 [Example A94, (1R,2S)-(E)-1′-methyl-2-(3-(4-(piperidin-1-ylmethyl)styryl)-1H-indazol-6-yl)spiro[cyclopropane-1,3′-indolin]-2′-one hydrochloride]",> 50
12,"CCN1CCN(c2ccc(-c3n[nH]c4cc([C@@H]5C[C@@]56C(=O)Nc5ccc(OC)cc56)ccc34)cc2)CC1 [Example A99, (1R,2S)-2-(3-(4-(4-ethylpiperazin-1-yl)phenyl)-1H-indazol-6-yl)-5′-methoxyspiro[cyclopropane-1,3′-indolin]-2′-one 2,2,2-trifluoroacetate]",< 50
13,"COc1ccc2c(c1)[C@]1(C[C@H]1c1ccc3c(-c4ccc(N5CCNCC5)cc4)n[nH]c3c1)C(=O)N2C [Example A101, (1R,2S)-5′-methoxy-1′-methyl-2-(3-(4-(piperazin-1-yl)phenyl)-1H-indazol-6-yl)spiro[cyclopropane-1,3′-indolin]-2′-one 2,2,2-trifluoroacetate]",< 50
14,"COc1ccc2c(c1)[C@]1(C[C@H]1c1ccc3c(/C=C/c4ccc(CN5CCOCC5)cc4)n[nH]c3c1)C(=O)N2C [Example A102, (1R,2S)-(E)-5′-methoxy-1′-methyl-2-(3-(4-(morpholinomethyl)styryl)-1H-indazol-6-yl)spiro[cyclopropane-1,3′-indolin]-2′-one hydrochloride]",> 50
15,"COc1ccc2c(c1)[C@]1(C[C@H]1c1ccc3c(/C=C/c4ccc(CN5CCOCC5)s4)n[nH]c3c1)C(=O)N2 [Example A105, (1R,2S)-5′-methoxy-2-(3-((E)-2-(5-(morpholinomethyl)thiophen-2-yl)vinyl)-1H-indazol-6-yl)spiro[cyclopropane-L3′-indolin]-2′-one hydrochloride]",> 50
16,"O=C1Nc2ccccc2[C@]12C[C@H]2c1ccc2c(/C=C/c3ccc(CN4CC[C@@H](F)C4)cc3)n[nH]c2c1 [Example A106, (1R,2S)-(E)-2-(3-(4-(((R)-3-fluoropyrrolidin-1-yl)methyl)styryl)-1H-indazol-6-yl)spiro[cyclopropane-1,3′-indolin]-2′-one 2,2,2-trifluoroacetate]",> 50
17,"COc1ccc2c(c1)[C@]1(C[C@H]1c1ccc3c(-c4ccc5nccn5c4)n[nH]c3c1)C(=O)N2 [Example A107, (1R,2S)-2-(3-(imidazo[1,2-a]pyridin-6-yl)-1H-indazol-6-yl)-5′-methoxyspiro[cyclopropane-1,3′-indolin]-2′-one 2,2,2-trifluoroacetate]",< 50
18,"COc1ccc2c(c1)[C@]1(C[C@H]1c1ccc3c(-c4ccc(OCCn5ccnc5)cc4)n[nH]c3c1)C(=O)N2 [Example A108, (1R,2S)-2-(3-(4-(2-(1H-imidazol-1-yl)ethoxy)phenyl)-1H-indazol-6-yl)-5′-methoxyspiro[cyclopropane-1,3′-indolin]-2′-one 2,2,2-trifluoroacetate]",< 50
19,"CN(C)Cc1ccc(/C=C/c2n[nH]c3cc([C@@H]4C[C@@]45C(=O)N(C)c4ccccc45)ccc23)cc1 [Example A109, (1R,2S)-(E)-2-(3-(4-((dimethylamino)methyl)styryl)-1H-indazol-6-yl)-1′-methylspiro[cyclopropane-1,3′-indolin]-2′-one 2,2,2-trifluoroacetate]",> 50
20,"CN1CCN(c2ccc(/C=C/c3n[nH]c4cc([C@@H]5C[C@@]56C(=O)N(C)c5ccccc56)ccc34)cn2)CC1 [Example A110, (1R,2S)-1′-methyl-2-(3-((E)-2-(6-(4-methylpiperazin-1-yl)pyridin-3-yl)vinyl)-1H-indazol-6-yl)spiro[cyclopropane-1,3′-indolin]-2′-one bis(2,2,2-trifluoroacetate)]",> 50
21,"COc1ccc2c(c1)[C@]1(C[C@H]1c1ccc3c(/C=C/c4ccncc4)n[nH]c3c1)C(=O)N2 [Example A111, (1R,2S)-5′-methoxy-2-(3-((E)-2-(pyridin-4-yl)vinyl)-1H-indazol-6-yl)spiro[cyclopropane-1,3′-indolin]-2′-one 2,2,2-trifluoroacetate]",> 50
22,"COc1ccc2c(c1)[C@]1(C[C@H]1c1ccc3c(/C=C/c4ccc(CN5CC[C@@H](F)C5)cc4)n[nH]c3c1)C(=O)N2 [Example A112, (1R,2S)-(E)-2-(3-(4-(((R)-3-fluoropyrrolidin-1-yl)methyl)styryl)-1H-indazol-6-yl)-5′-methoxyspiro[cyclopropane-1,3′-indolin]-2′-one 2,2,2-trifluoroacetate]",> 50
23,"O=C1Nc2ccccc2[C@]12C[C@H]2c1ccc2c(/C=C/c3ccc4c(c3)CNCCO4)n[nH]c2c1 [Example A113, (1R,2S)-2-(3-((E)-2-(2,3,4,5-tetrahydrobenzo[f][1,4]oxazepin-7-yl)vinyl)-1H-indazol-6-yl)spiro[cyclopropane-1,3′-indolin]-2′-one 2,2,2-trifluoroacetate]",> 50
24,"CN1C(=O)[C@@]2(C[C@H]2c2ccc3c(/C=C/c4ccc(CN5CCCC5)cc4)n[nH]c3c2)c2ccccc21 [Example A115, (1R,2S)-(E)-1′-methyl-2-(3-(4-(pyrrolidin-1-ylmethyl)styryl)-1H-indazol-6-yl)spiro[cyclopropane-1,3′-indolin]-2′-one 2,2,2-trifluoroacetate]",< 50
25,"O=C1Nc2ccccc2[C@]12C[C@H]2c1ccc2c(/C=C/c3cc(F)c(CN4CCOCC4)c(F)c3)n[nH]c2c1 [Example A116, (1R,2S)-(E)-2-(3-(3,5-difluoro-4-(morpholinomethyl)styryl)-1H-indazol-6-yl)spiro[cyclopropane-1,3′-indolin]-2′-one 2,2,2-trifluoroacetate]",> 50
26,"COc1ccc2c(c1)[C@]1(C[C@H]1c1ccc3c(-c4ccc(N5CCC(N(C)C)CC5)cc4)n[nH]c3c1)C(=O)N2 [Example A120, (1R,2S)-2-(3-(4-(4-(dimethylamino)piperidin-1-yl)phenyl)-1H-indazol-6-yl)-5′-methoxyspiro[cyclopropane-1,3′-indolin]-2′-one 2,2,2-trifluoroacetate]",< 50
27,"COc1ccc2c(c1)[C@]1(C[C@H]1c1ccc3c(-c4ccc(N5CCC(N6CCOCC6)CC5)cc4)n[nH]c3c1)C(=O)N2 [Example A121, (1R,2S)-5′-methoxy-2-(3-(4-(4-morpholinopiperidin-1-yl)phenyl)-1H-indazol-6-yl)spiro[cyclopropane-1,3′-indolin]-2′-one 2,2,2-trifluoroacetate]",< 50
